The values below come from patent US4863900A (priority 1987, dated 1989).

Assay [1] concerns influenza, Newcastle disease, tobacco mosaic, poliomyelitis, and mumps viruses. To be noted: cited from earlier work.
Assay [2] relates to HSV1. The assay is described as follows: Virus inactivation, surviving virus by plaque assay on VERO cells. To be noted: for inactivation of HSV1, temperature effect: 1 hour.
The test system of assay [3] is HSV1. The assay is described as follows: Injection of poly-L-histidine treated HSV1 into mice, observed 14 days. The assay is classed as in vivo, Balb/C mice. To be noted: HSV1 incubated with 100 μg His-75 in 1 ml, pH 6.0, one hour at 37° C., 50 μl in lower left jaw. The text has this: 3. All animals were observed daily for 14 days.
For a further assay, the system named is HSV2. The assay is described as follows: Virus inactivation, surviving virus by plaque assay on VERO cells. To be noted: for Percent Survivors HSV-2: 1 hr at 37° C.
[4] abbreviates: 100 μg/ml at 37° C., pH 6.0, samples at 1, 15, 30, 45 and 60 minutes.
The mark [5] stands for this setting: pH 5, 100 μg/ml, 1 hour at 37° C.
The mark [6] stands for this setting: pH 6, 100 μg/ml, 1 hour at 37° C.
The mark [7] stands for this setting: pH 7, 100 μg/ml, 1 hour at 37° C.
Where [8] appears, read: pH 8, 100 μg/ml, 1 hour at 37° C.

With poly-L-arginine, the “inhibitory activity against viruses” value in assay [1] is reported as “inhibitory activity”.

Regarding poly-L-Histidine [His-75], the “Percent Survivors HSV-1” value stood at 83% in the assay on HSV1 [2] (1 μg/ml, pH 6.0, 1 hr at 37° C.); 64% in the assay on HSV1 [2] (10 μg/ml, pH 6.0, 1 hr at 37° C.); 0% in the assay on HSV1 [2] (100 μg/ml, pH 6.0, 30 minutes, 37° C., not shifted); 0% in the assay on HSV1 [2] (100 μg/ml, pH 6.0, 60 minutes, 37° C., not shifted). Moreover, the “length of time required for inactivation of HSV1” value in the assay with HSV1 [2] (setting [4]) is recorded as “inactivated by as little as one minute of exposure”. For the same substance, the “inactivation of HSV1, temperature effect” value with HSV1 [2] (4° C., 100 μg/ml, pH 6.0) is “a small amount of HSV1 survived”; with HSV1 [2] (22° C. and 37° C., 100 μg/ml, pH 6.0), “inactivation was almost complete”. Further, the “ID50 (amount of drug required to inactivate 50% of the virus)” value was found to be 44.38 µg/mL in the assay on HSV1 [2] (HSV1, pH 6.0, 1 hour at 37° C., linear regression analysis) and 41.15 µg/mL in the assay with HSV2 (HSV2, pH 6.0, 1 hour at 37° C., linear regression analysis). In addition, the “inactivation of HSV1” value in the assay on HSV1 [2] (setting [5]) was “efficiently inactivated”; in the assay on HSV1 [2] (setting [6]), “efficiently inactivated”; in the assay on HSV1 [2] (setting [7]), “not”; with HSV1 [2] (setting [8]), “not”. In addition, the “inactivation of HSV” value with HSV1 [2] (pH 7.2) is “does not inactivate”. Also, the “health of mice injected with poly-L-histidine treated HSV1” value with HSV1 [3] (listed as Poly-L-histidine) is listed as “failed to cause disease”; with HSV1 [3] (listed as poly-L-histidine) it was “remained healthy throughout the study”. In addition, the “Percent Survivors HSV-2” value with HSV2 (1 μg/ml, pH 6.0) is 62%; with HSV2 (10 μg/ml, pH 6.0) it was 84%. The “length of time required for inactivation of HSV2” value in the assay with HSV2 (setting [4]) is “inactivated by as little as one minute of exposure”. Moreover, the “inactivation of HSV2, temperature effect” value in the assay with HSV2 (4° C., 22° C. and 37° C., 100 μg/ml, pH 6.0, 1 hour) is “inactivation was almost complete”. Moreover, the “inactivation of HSV2” value in the assay on HSV2 (setting [5]) was “inactivated”; in the assay on HSV2 (setting [6]), “inactivated”; in the assay with HSV2 (setting [7]), “not”; in the assay with HSV2 (setting [8]), “not and Some small amount of inactivation”.

Consider poly-L-lysine, for which, in assay [1], the “inhibitory activity against viruses” value was “inhibitory activity”.

Regarding poly-L-Histidine [His-64], the “inactivation of HSV1” value with HSV1 [2] (setting [5]) is on record as “inactivated”; in the assay with HSV1 [2] (setting [6]), “inactivated”; in the assay on HSV1 [2] (setting [7]) it was “Some minor inactivation”; with HSV1 [2] (setting [8]) it was “none”.
